From patent EP0361645B1, “Organic hydrazine derivatives for pharmaceutical use” (ROHM AND HAAS COMPANY, priority 1988, dated 1990)

Test system: ligated M. sexta abdomens (L4D1)
Experiment: Onset of molting in ligated L4D1 M. sexta abdomens (injection)
Type: in vivo
Conditions: injected into L4D1 abdomens
Experimental: L4D1 means fourth instar, first day after molting. L4 animals 36 hours after ecdysis were ligated, decapitated and next day injected with varying doses of compound in 1 - 2 ul DMSO. They were scored as follows: 0 = normal L4 abdomens with no L5 crochets or spiracle apolysis; 1 = exposed dorsal vessel (response to moderate levels of molting hormone in the presence of low JH levels); 2 = L5 crochets formed but no spiracle apolysis; 3 = L5 crochets formed and mild spiracle apolysis; 4 = strong molting response, both L5 crochets and spiracle cuticle synthesized. These methods are an adaptation of the method of J. W. Truman, L. M. Riddiford, L. Safranek, 39 Dev. Biol 247 (1974). Injection and scoring of L5D3 abdomens (weighing 6.5 - 7.5 g) are also adaptations of previous methods in H. F. Nijhout, 22 J. Insect Physiol. 453 (1976). […] Animals were held over moistened filter paper at 25 ° C and were scored after three days. […] For both L4 and L5 abdomens, 50% effective doses were determined by plotting the mean score for all individuals vs. dose, then determining the dose which gives a score of 2.0 and 1.5 respectively. Intact L5D0 hornworms were either allowed to feed on treated commercial black cutworm diet or injected into a proleg and scored after 48 hours. The 50% effective dose was calculated by plotting percentage of the population bearing a prematurely apolysed head capsule vs. dose. […]

**Q.** How did the “fold more potent than 20-hydroxyecdysone” value turn out when CC(C)(C)N(NC(=O)c1ccccc1)C(=O)c1ccccc1 [Example No. 3, N'-t-butyl-N,N'-dibenzoylhydrazine] was run?
**A.** 30 fold
